Consider 22 compounds from patent US7935722B2 (Eli Lilly and Company, priority 2005, dated 2011).

SMILES strings stand for the structures. Read-outs that look alike come from different tables or passages of the source.

The target in assay [1] is T1, human AR (androgen receptor) (Homo sapiens, UniProt P10275).
T1 construct: expressed in transfected cells; host or cells: 293 cells (293-AR lysate)
T1 sequence (P10275 1-920): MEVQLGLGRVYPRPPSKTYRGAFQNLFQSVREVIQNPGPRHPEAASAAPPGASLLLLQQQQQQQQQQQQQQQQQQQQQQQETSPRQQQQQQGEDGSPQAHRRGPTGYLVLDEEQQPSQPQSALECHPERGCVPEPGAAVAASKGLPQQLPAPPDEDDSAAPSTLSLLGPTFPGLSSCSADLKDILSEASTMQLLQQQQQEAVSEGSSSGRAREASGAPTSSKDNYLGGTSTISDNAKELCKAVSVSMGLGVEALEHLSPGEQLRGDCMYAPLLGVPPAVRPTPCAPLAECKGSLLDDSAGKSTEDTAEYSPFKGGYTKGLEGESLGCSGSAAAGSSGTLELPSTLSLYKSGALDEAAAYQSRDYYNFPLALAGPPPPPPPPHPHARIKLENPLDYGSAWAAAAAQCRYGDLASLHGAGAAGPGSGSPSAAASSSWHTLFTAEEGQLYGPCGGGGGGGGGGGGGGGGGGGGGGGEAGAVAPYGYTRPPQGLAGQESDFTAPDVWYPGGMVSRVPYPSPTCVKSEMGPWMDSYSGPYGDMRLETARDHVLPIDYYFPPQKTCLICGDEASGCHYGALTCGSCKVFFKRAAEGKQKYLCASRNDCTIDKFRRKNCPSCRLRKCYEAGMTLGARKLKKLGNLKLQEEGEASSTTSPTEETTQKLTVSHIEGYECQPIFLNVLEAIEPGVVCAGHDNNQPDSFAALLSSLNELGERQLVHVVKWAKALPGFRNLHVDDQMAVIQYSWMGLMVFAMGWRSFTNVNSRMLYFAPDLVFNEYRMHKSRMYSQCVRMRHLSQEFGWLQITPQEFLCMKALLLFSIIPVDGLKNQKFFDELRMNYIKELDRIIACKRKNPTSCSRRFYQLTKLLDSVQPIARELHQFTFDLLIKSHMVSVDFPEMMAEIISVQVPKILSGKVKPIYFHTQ
Kind of assay: Steroid hormone nuclear receptor binding assay, AR binding. The protocol: Cell lysates from 293 cells overexpressing human GR (glucocorticoid receptor), AR (androgen receptor), MR (mineralocorticoid receptor) or PR (progesterone receptor) are used for competition binding assays to determine Ki values for test compounds. […] Competing compounds are added at various concentrations ranging from about 0.01 nM to 10 μM. Non-specific binding is determined in the presence of 500 nM dexamethasone for GR binding, 500 nM aldosterone for MR binding, or 500 nM methyltrienolone for AR and PR binding. The binding reaction (140 μl) is incubated for overnight at 4° C., then 70 μl of cold charcoal-dextran buffer (containing per 50 ml of assay buffer, 0.75 g of charcoal and 0.25 g of dextran) is added to each reaction. Plates are mixed 8 minutes on an orbital shaker at 4° C. Plates are then centrifuged at 3,000 rpm at 4° C. for 10 minutes. An aliquot of 120 μl of the mix is transferred to another 96-well plate and 175 μl of Wallac Optiphase “Hisafe 3” scintillation fluid is added to each well. Plates are sealed and shaken vigorously on an orbital shaker. After an incubation of 2 hrs, plates are read in a Wallac Microbeta counter. […] The Kd for ^3H-dexamethasone for GR binding, ^3H-methyltrienolone for AR binding, ^3H-aldosterone for MR binding, or ^3H-methyltrienolone for PR binding, is determined by saturation binding. The IC50 values for test compounds are converted to Ki using Cheng-Prusoff equation and the Kd determined by saturation binding assay. […]

The target of assay [2] is T2, human androgen receptor (AR) (Homo sapiens, UniProt P10275).
T2 construct: expressed in transfected cells; host or cells: mouse myoblast C2C12 cells, transiently co-transfected
T2 sequence (P10275 1-920): T1 sequence (P10275 1-920)
Description: C2C12 AR/ARE reporter assay. Format: cell-based. The method, then: As an indicator of agonist activity in muscle tissue, the C2C12 AR/ARE reporter assay is performed. Briefly, mouse myoblast C2C12 cells are co-transfected using FuGENE™. […] Cells are transfected in T150 cm^2 flasks in DMEM media with 4% or 10% Fetal Bovine Serum […]. After a 5 hour incubation, transfected cells are trypsinized, plated in 96 well dishes in DMEM media containing 10% charcoal-stripped FBS, incubated for 2 h and then exposed to various concentrations of test compounds ranging from about 0.01 nM to 10 μM. After 48 h of incubations with compounds, cells are lysed and luciferase activity is determined using standard techniques. Data is fit to a 4 parameter-fit logistics to determine EC50 values. The % efficacy is determined versus maximum stimulation obtained with 10 nM methyltrienolone. […]

The mark [3] stands for this setting: C2C12, read-out: C2C12 % Efficacy.
[4] abbreviates: average of n trials, read-out: AR binding Ki.
The mark [5] stands for this setting: C2C12 AR/ARE reporter assay, average of n trials, read-out: C2C12 % Efficacy.
The mark [6] stands for this setting: C2C12 AR/ARE reporter assay, average of n trials, read-out: C2C12 EC50.

`Cc1nc(Cn2c3c(c4cc(C#N)ccc42)C[C@@H](NC(=O)C(C)C)CC3)cs1` [Example 152, (S)-N-[6-cyano-9-(2-methyl-thiazol-4-ylmethyl)-2,3,4,9-tetrahydro-1H-carbazol-3-yl]-isobutyramide]: the inhibitory constant (Ki) in assay [1] came out at 208 nM. The same compound had an EC50 in assay [2] of 409 nM. The Emax in assay [2] (setting [3]) worked out at 61.1%.

Turning to `CC(C)C(=O)NC1CCc2c(c3cc(OC(F)(F)F)ccc3n2Cc2cccc(F)c2)C1` (stereo not drawn) [Example 166], the inhibition constant Ki in assay [1] came out at 5.3 nM. In assay [2], this compound returned an EC50 of 6.2 nM. For the same compound, the Emax in assay [2] (setting [3]) is 81.1%.

The compound `CC(C)C(=O)NC1CCc2c(c3cc(N(C)C)ccc3n2Cc2cccc(F)c2)C1` (stereo not drawn) [Example 62, N-[6-Dimethylamino-9-(3-fluoro-benzyl)-2,3,4,9-tetrahydro-1H-carbazol-3-yl]-isobutyramide] gave a Ki in assay [1] of 110 nM. The compound further gave an EC50 in assay [2] of 369 nM. The Emax in assay [2] (setting [3]) worked out at 56.1%.

Regarding `CC(C)C(=O)NC1CCc2c(c3cc(Cl)ccc3n2Cc2ccc(O)cc2)C1` (stereo not drawn) [Example 103, N-[6-Chloro-9-(4-hydioxy-benzyl)-2,3,4,9-tetrahydro-1H-carbazol-3-yl]-isobutyramide], the Ki in assay [1] (setting [4]) turned out to be 51.4 nM. Also, the Emax in assay [2] (setting [5]) worked out at 32.8%. Besides, the EC50 in assay [2] (setting [6]) came out at 293 nM.

In turn, `CC(C)C(=O)NC1CCc2c(c3cc(C#N)ccc3n2Cc2ccccc2NS(C)(=O)=O)C1` (stereo not drawn) [Example 113, N-[6-Cyano-9-(2-methanesulfonylamino-benzyl)-2,3,4,9-tetrahydro-1H-carbazol-3-yl]-isobutyramide] had a Ki in assay [1] of 21.4 nM. The compound also returned a 50% effective concentration (EC50) in assay [2] of 35.8 nM. In addition, the Emax in assay [2] (setting [3]) was determined as 97.7%.

The compound `CC(C)C(=O)NC1CCc2c(c3cc(Cl)ccc3n2Cc2ccccc2O)C1` (stereo not drawn) [Example 101, N-[6-Chloro-9-(2-hydroxy-benzyl)-2,3,4,9-tetrahydro-1H-carbazol-3-yl]-isobutyramide] displayed a Ki in assay [1] of 5.2 nM. It took 4.1 nM to reach a half-maximal effect in assay [2] (EC50). Besides, the Emax in assay [2] (setting [3]) is 65.3%.

`O=C(NC1CCc2c(c3cc(OC(F)(F)F)ccc3n2Cc2cccc(F)c2)C1)C1CC1` (stereo not drawn) [Example 167]: in assay [1], the Ki came to 7.8 nM. Moreover, the EC50 in assay [2] was found to be 13.7 nM. In addition, the Emax in assay [2] (setting [3]) worked out at 82.4%.

`CC(C)C(=O)NC1CCc2c(c3cc(OCC4CC4)ccc3n2Cc2cccc(F)c2)C1` (stereo not drawn) [Example 92, N-[6-Cyclopropylmetboxy-9-(3-fluoro-benzyl)-2,3,4,9-tetrahydro-1H-carbazol-3-yl]-isobutyramide]: the Ki in assay [1] came to 4.1 nM. Besides, the EC50 in assay [2] is 3 nM. In assay [2] (setting [3]), the Emax was determined as 73.4%.

Compound `CC(C)C(=O)NC1CCc2c(c3cc(-c4cccnc4)ccc3n2Cc2cccc(F)c2)C1` (stereo not drawn) [Example 132] had a Ki in assay [1] of 7.4 nM. This compound gave a 50% effective concentration (EC50) in assay [2] of 5.4 nM. In addition, the Emax in assay [2] (setting [3]) worked out at 83.9%.

Compound `CC(C)C(=O)N[C@@H]1CCc2c(c3cc(C#N)ccc3n2Cc2cnccn2)C1` [Example 160, (R)-N-(6-Cyano-9-pyrazin-2-ylmethyl-2,3,4,9-tetrahydro-1H-carbazol-3-yl)-isobutyramide] registered a Ki in assay [1] of 19.8 nM. This compound also came in with an EC50 in assay [2] of 6.3 nM. Further, the Emax in assay [2] (setting [3]) was found to be 89.5%.

Regarding `CC(C)Oc1ccc2c(c1)c1c(n2Cc2cccc(F)c2)CCC(NC(=O)C(C)C)C1` (stereo not drawn) [Example 94, N-[9-(3-Fluoro-benzyl)-6-isopropoxy-2,3,4,9-tetrahydro-1H-carbazol-3-yl]-isobutyramide], the affinity in assay [1] corresponds to a Ki of 38.3 nM. Further, the EC50 in assay [2] turned out to be 41 nM. Further, the Emax in assay [2] (setting [3]) stood at 101%.

In assay [1], `COc1ccc2c(c1)c1c(n2Cc2cccc(Cl)c2)CCC(NC(=O)C(C)C)C1` (stereo not drawn) [Example 70] gave an inhibition constant Ki of 10 nM. In assay [2], this compound had an EC50 of 39.8 nM. Moreover, the Emax in assay [2] (setting [3]) stood at 63.9%.

With `N#Cc1ccc2c(c1)c1c(n2Cc2cccc(F)c2)CC[C@@H](NC(=O)C2CC2)C1` [Example 194, (R)-Cyclopropanecarboxylic acid[6-cyano-9-(3-fluorobenzyl)-2,3,4,9-tetrahydro-1H-carbazol-3-yl]amide], the Ki in assay [1] turned out to be 1.3 nM. The EC50 in assay [2] turned out to be 2 nM. The Emax in assay [2] (setting [3]) came to 95.5%.

In assay [1], `Cc1csc(Cn2c3c(c4cc(C#N)ccc42)C[C@H](NC(=O)C(C)C)CC3)n1` [Example 156, (R)-N-[6-Cyano-9-(4-methyl-thiazol-2-ylmethyl)-2,3,4,9-tetrahydro-1H-carbazol-3-yl]-isobutyramide] gave a Ki of 10.8 nM. In assay [2], this compound displayed an EC50 of 30.5 nM. For the same compound, the Emax in assay [2] (setting [3]) came out at 79.4%.

Turning to `CN(C)C(=O)NC1CCc2c(c3cc(OC(F)(F)F)ccc3n2Cc2cccc(F)c2)C1` (stereo not drawn) [Example 169], in assay [1] (setting [4]), the Ki turned out to be 8.3 nM. The Emax in assay [2] (setting [5]) came to 76.8%. For the same compound, the EC50 in assay [2] (setting [6]) was determined as 6.5 nM.

Turning to `CC(C)C(=O)NC1CCc2c(c3cc(C(N)=S)ccc3n2Cc2cccc(F)c2)C1` (stereo not drawn) [Example 64, N-(9-(3-Fluorobenzyl)-6-thiocarbamoyl-2,3,4,9-tetrahydro-1H-carbazol-3-yl)isobutyramide], the Ki in assay [1] (setting [4]) was 14.5 nM. In assay [2] (setting [5]), the Emax worked out at 89.3%. In assay [2] (setting [6]), the EC50 amounted to 9.3 nM.

In assay [1], `CC(C)C(=O)N[C@@H]1CCc2c(c3cc(C#N)ccc3n2Cc2csc(Cl)n2)C1` [Example 154, (R)-N-[9-(2-Chloro-thiazol-4-ylmethyl)-6-cyano-2,3,4,9-tetrahydro-1H-carbazol-3-yl]-isobutyramide] returned a Ki of 2.2 nM. The compound further yielded an EC50 in assay [2] of 4.4 nM. For the same compound, the Emax in assay [2] (setting [3]) is 119%.

Take `CN(C)C(=O)NC1CCc2c(c3cc(C#N)ccc3n2Cc2cccc(F)c2)C1` (stereo not drawn) [Example 178, 3-[6-Cyano-9-(3-fluorobenzyl)-2,3,4,9-tetrahydro-1H-carbazol-3-yl]-1,1-dimethylurea]: in assay [1] (setting [4]), the Ki stood at 5.9 nM. In addition, in assay [2] (setting [5]), the Emax was 81.8%. Further, the EC50 in assay [2] (setting [6]) is 11.5 nM.

In assay [1], `CC(C)C(=O)NC1CCc2c(c3cc(C#N)ccc3n2Cc2ccccc2)C1` (stereo not drawn) [Example 85] returned an inhibition constant (Ki) of 4.6 nM. This compound showed an EC50 in assay [2] of 3.8 nM. Besides, the Emax in assay [2] (setting [3]) is 79.8%.

Take `COC(=O)c1ccc2c(c1)c1c(n2Cc2cccc(F)c2)CC[C@@H](NC(=O)C(C)C)C1` [Example 187, (R)-9-(3-fluorobenzyl)-6-isobutyrylamino-6,7,8,9-tetrahydro-5H-carbazole-3-carboxylic acid methyl ester]: the affinity in assay [1], expressed as Ki, was 2.3 nM. Further, the EC50 in assay [2] came to 2.4 nM. Also, in assay [2] (setting [3]), the Emax was found to be 77.8%.

Turning to `CCNc1ccccc1Cn1c2c(c3cc(C#N)ccc31)CC(NC(=O)C(C)C)CC2` (stereo not drawn) [Example 112, N-[6-Cyano-9-(2-ethylamino-benzyl)-2,3,4,9-tetrahydro-1H-carbazol-3-yl]-isobutyramide], the affinity in assay [1] corresponds to a Ki of 12.7 nM. In addition, in assay [2], the response was half-maximal at 27.2 nM (EC50). In addition, the Emax in assay [2] (setting [3]) was 101%.

Compound `CC(C)C(=O)NC1CCc2c(c3cc(C#N)ccc3n2Cc2cccc(N)c2)C1` (stereo not drawn) [Example 90, N-[9-(3-Amino-benzyl)-6-cyano-2,3,4,9-tetrahydro-1H-carbazol-3-yl]-isobutyramide] returned a Ki in assay [1] of 30.5 nM. This compound yielded an EC50 in assay [2] of 123 nM. Further, the Emax in assay [2] (setting [3]) came to 67.6%.

Broadly, the Ki is the equilibrium dissociation constant of an inhibitor or competing ligand from its target. What is called EC50 is the concentration needed to bring the measured effect to its halfway point.
